Patent US20060121102A1, “Transdermal systems for the delivery of estrogens and progestins” (priority 2004, published 2006)

Test: In vitro skin permeation (flux), modified Franz diffusion cells
Format: in vitro ADME, human
Conditions: as permeation enhancer, compared with other enhancers such as lauryl lactate
Description: In vitro skin permeation studies were conducted using modified Franz diffusion cells to determine the delivery of estrogens and progestins from various drug polymer matrices. The release liner was peeled off of the drug matrix layer. The drug matrix layer was then gently pressed onto the stratum corneum of heat separated epidermis from human cadaver skin. This skin membrane with the backing and drug matrix affixed thereto was then mounted between the two half-cells and fastened with a clamp. The receiver compartment was filled with 1% hydroxylpropylcyclodextrin in normal saline solution with 0.01% sodium azide. The temperature was maintained at 32° C. Samples were taken at preset intervals and assayed by HPLC. The flux was calculated from the slope of the cumulative amounts of the drug in the receiver compartment versus time.

For `CC(O)C(=O)O` (stereo not shown) [lactic acid], the “enhancing the transdermal flux of norelgestromin” value was “particularly effective”.
